pKi: −log10 of the molar value.
target: T1, TvaCA2 (Trichomonas vaginalis, UniProt A2DLG4); assay: stopped-flow CO2 hydration, phenol red; type: biochemical; conditions: read-out: TvaCA2 β
T1 construct: gene TVAG_268150; recombinant in E. coli BL21 Star (DE3), pBVboostFG; 6xHis-tag removed by thrombin; 185 residues; homodimer, zinc
T1 sequence (A2DLG4 1-184): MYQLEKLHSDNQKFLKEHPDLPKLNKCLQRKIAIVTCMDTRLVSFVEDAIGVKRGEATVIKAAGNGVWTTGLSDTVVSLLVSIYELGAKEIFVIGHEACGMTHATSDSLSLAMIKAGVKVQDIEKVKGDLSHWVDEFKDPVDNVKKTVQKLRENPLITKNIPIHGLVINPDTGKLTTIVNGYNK

Compound	pKi
CC1(C)O[C@@H]2[C@@H](CO[C@@]3(COS(N)(=O)=O)OC(C)(C)O[C@@H]23)O1 [TPM, topiramate]	< 5.00
Nc1cc(Cl)c(S(N)(=O)=O)cc1S(N)(=O)=O [compound 12, 4-amino-6-chloro-1,3-benzenedisulfonamide]	6.42
Nc1ccc(S(N)(=O)=O)cc1Br [compound 9, 3-bromo-4-amino-benzenesulfonamide]	< 5.00
Nc1cc(C(F)(F)F)c(S(N)(=O)=O)cc1S(N)(=O)=O [compound 11, 4-amino-6-trifluoromethyl-benzene-1,3-disulfonamide]	6.36
NS(=O)(=O)c1cc2c(cc1Cl)NCNS2(=O)=O [HCT]	5.51
O=C1NS(=O)(=O)c2ccccc21 [SAC, saccharin]	< 5.00
NS(=O)(=O)c1ccc(N2CCCCS2(=O)=O)cc1 [SLT, sulthiame]	< 5.00
NS(=O)(=O)c1cccc(S(N)(=O)=O)c1 [compound 3, 1,3-disulfamoyl benzene]	6.35
Nc1nnc(S(N)(=O)=O)s1 [compound 13, 5-amino-1,3,4-thiadizole-2-sulfonamide]	5.94
NS(=O)(=O)Cc1noc2ccccc12 [ZNS, zonisamide]	< 5.00
Cc1onc(-c2ccccc2)c1-c1ccc(S(N)(=O)=O)cc1 [VLX, valdecoxib]	< 5.00
NS(=O)(=O)c1nnc(NS(=O)(=O)c2ccccc2)s1 [BZA]	5.38
CCN1CCCC1CNC(=O)c1cc(S(N)(=O)=O)ccc1OC (centres unmarked) [SLP, sulpride]	< 5.00
NS(=O)(=O)c1ccc(S(=O)(=O)Nc2cccc3c(Cl)c[nH]c23)cc1 [IND, indisulam]	< 5.00
CCN[C@H]1CN(CCCOC)S(=O)(=O)c2sc(S(N)(=O)=O)cc21 [BRZ]	5.49
CC(=O)N=c1sc(S(N)(=O)=O)nn1C [MZA, methazolamide]	6.41
Cc1ccc(-c2cc(C(F)(F)F)nn2-c2ccc(S(N)(=O)=O)cc2)cc1 [CLX, celecoxib]	< 5.00

target: T1, TvaCA2; assay: biochemical; set-up: stopped-flow CO2 hydration, phenol red absorbance at 557 nm, 20 °C, pH 7.5, 15 min preincubation; conditions: inhibitor; read-out: TvaCA2 β
Experimental: CA-catalyzed CO2 hydration activity was investigated with an Applied Photophysics stopped-flow instrument at 20 °C [20]. Twenty millimolar Hepes was used as buffer (pH 7.5) with 20 mM Na2SO4 (for maintaining a constant ionic strength). Phenol red of 0.2 mM was used as a pH indicator, working at a maximum absorbance of 557 nm. The initial rates of the CA-catalyzed CO2 hydration reaction were followed for 10–100 s. CO2 concentrations of 1.7–17 mM were used to determine the kinetic parameters and inhibition constants. For each inhibitor, the initial velocity was determined by using ≥ 6 traces of the initial 5–10% of the reaction. The uncatalyzed rates were determined similarly and subtracted from the total observed rates. DSMO was used at 5% to make the stock solution, from which 0.1 mM inhibitor solutions were prepared in dH2O. Subsequently, dilutions up to 0.01 nM were prepared with dH2O. Inhibitor and enzyme solutions were preincubated together (15 min, room temperature) prior to the assay to allow the formation of the enzyme–inhibitor complex. The inhibition constants were obtained by nonlinear least-squares methods using PRISM 3 and represent the means from ≥ 3 different measurements. The gene sequence of the second β-CA of T. vaginalis (TvaCA2) was retrieved from Universal Protein Resource Database UniProt (protein entry A2DLG4). An Escherichia coli expression system with a multipromoter vector, pBVboostFG (Online Resource 1), was used for the expression of TvaCA2. Gene synthesis and subcloning were performed by GeneArt (Thermo Fisher Scientific, Waltham, USA). The cells (OneShot® BL21 Star™ (DE3) Chemically Competent Cells, #C601003, Thermo Fisher Scientific, Waltham, USA) were cultured in an orbital shaker (200 rpm, 37 °C) in Luria–Bertani (LB) medium supplemented with 10 mg/mL gentamicin (1:1000). The cells were harvested via centrifugation (4 °C, 15 min, 5000 × g) after reaching an optical density of 0.4–0.6, and they were mechanically disrupted with an EmulsiFlex-C3 homogenizer (AVESTIN, Ottawa, Canada) in 50 mM Na2HPO4, 0.5 M NaCl, and 50 mM imidazole binding buffer (BB; pH 8.0), and centrifuged (13,000 × g, 15 min, 4 °C). […] After incubation, the resin was packed into a chromatography column with an EMD Millipore™ vacuum filtering flask (#XX1004705, Merck, Darmstad, Germany). The protein was eluted with 50 mM Na2HPO4, 0.5 M NaCl, and 350 mM imidazole (pH 7.0). The 6xHis-tag was removed by thrombin (#RECOMT, Sigma-Aldrich, St. Louis, USA) according to the Thrombin CleanCleave™ Kit manual (Sigma-Aldrich, St. Louis, USA) followed by Ni^2+-NTA affinity chromatography. NanoDrop One (Thermo Fisher Scientific, Waltham, USA) was used to determine the protein yield, and the quality of the purified protein was analyzed by SDS-PAGE (sodium dodecyl sulfate–polyacrylamide gel electrophoresis) using a 12% polyacrylamide gel visualized with PageBlue Protein staining solution (Thermo Fisher Scientific, #24,620, Waltham, USA). The obtained polypeptide bands of the SDS-PAGE gel were identified using tandem mass spectrometry (MS/MS; Meilahti Clinical Proteomics Core Facility, […]

Compound	pKi
NS(=O)(=O)c1cc(Cl)cc(Cl)c1O [compound 10]	< 5.00
NS(=O)(=O)c1ccc(CCNS(=O)(=O)c2ccc([N+](=O)[O-])cc2CO)cc1 [compound 21]	5.38
Nc1cccc(S(N)(=O)=O)c1 [compound 01]	5.41
Nc1nccc(Nc2ccc(S(N)(=O)=O)cc2)n1 [compound 19]	< 5.00

same assay, conditions: read-out: TvaCA2 β

Compound	pKi
Nc1ccc(S(N)(=O)=O)cc1F [compound 07]	5.89
Cn1nc(S(N)(=O)=O)sc1=N [compound 14]	5.79
Nc1ccc(S(N)(=O)=O)cc1Cl [compound 08]	5.40
NS(=O)(=O)c1ccc(C(=O)O)cc1 [compound 18]	5.79
Nc1ccc(S(=O)(=O)Nc2ccc(S(N)(=O)=O)cc2)cc1 [compound 22]	5.41
Nc1ccc(S(=O)(=O)NCc2ccc(S(N)(=O)=O)cc2)cc1 [compound 23]	5.65
Nc1ccc(S(N)(=O)=O)cc1 [compound 02]	5.89
Cc1ccc(S(N)(=O)=O)cc1 [compound 04]	5.89
NCCc1ccc(S(N)(=O)=O)cc1 [compound 06]	5.37
Nc1ccc(S(=O)(=O)Nc2nnc(S(N)(=O)=O)s2)cc1 [compound 20]	5.98
NCc1ccc(S(N)(=O)=O)cc1 [compound 05]	5.38

Source: paper PMC8724216, “Biochemical and structural characterization of beta-carbonic anhydrase from the parasite Trichomonas vaginalis” (Journal of Molecular Medicine (Berlin, Germany), 2021)
